Reference: patent US11376298B2, “Composition comprising natural substances having healing, repellent and biocidal properties for the treatment and the cure of external wounds” (priority 2004, dated 2022)

Legend:
[1] = EPA (USA) and EEA (UE); cited from earlier work
[2] = test system: cheloid; experiment: Cheloid therapy on wounds in the distal part of horse's limb; type: in vivo, horses; settings: composition versus Salicylic acid therapy
Text: Cheloid is a disturbance of the granulation tissue due to a hyperproliferation of the fibroblasts. These cells stop the mitogenic activity when enough extracellular matrix fills the wound crater. Collagen fibrils of the matrix start to retract anchoring the wounds edges to fibroblasts. When the collagen fibrils start to retract, fibroblasts stop to secrete the matrix (antimitogenic effect). Most of them undergo apoptosis (cell death without inducing an inflammatory reaction) and quiescence (sleeping fibroblasts), while only a small part undergo the transformation into myofibroblasts (which play a role in the last phases of the wound healing). Newly formed capillary vessels are absorbed and disappear in synchrony with the fibroblasts. Keratinocytes on the top of the healed area start to re-epithelialize the area and the process is complete: In horse, researchers have identified two orders of problems responsible for the high incidence of cheloid pathology: 1) exaggerated tension stimuli at the levels of the distal part of the horses legs, due too scarcity of muscle mass and hypodermal fat and 2) slow capacity of the keratinocytes to obtain the re-epithelialization of the granulated area maybe due to a scarcity of the signals responsible for the antimitogenic effects on fibroblasts. […]

SMILES: C/C=C(\C)C(=O)O[C@H]1C[C@@H](OC(C)=O)[C@@]2(C(=O)OC)CO[C@H]3[C@@H](O)[C@@](C)([C@]45O[C@@]4(C)[C@@H]4C[C@H]5O[C@@H]5OC=C[C@@]54O)[C@H]4[C@]1(CO[C@]4(O)C(=O)OC)[C@@H]32 [Azadirachtin A]
- class of toxicity [1]: IVth

SMILES: O=C(O)c1ccccc1O [Salicylic acid, salicylic acid]
- time of healing / effectiveness in comparison of therapies [2]: not as effective as the therapy with the present composition
